Our source for the GI50 values is patent US20250388605A1, “HETEROBIFUNCTIONAL COMPOUNDS AND METHODS OF TREATING DISEASE” (Halda Therapeutics OpCo, Inc., priority 2022, published 2025).

The first assay relates to T47D cells. In words: Cellular Growth Inhibition Assay for T47D Cells (CellTiter-Glo). It counts as cell-based, human. The following applies: 72 hours. As to the method: Exemplary compounds were tested for ability to inhibit the proliferation of T47D cells. T47D cells are a commercially available human breast cancer cell line.
T47D cells were purchased from American Type Cell Culture (ATCC Cat #HTB-133) and then seeded on poly-D-lysine coated, black clear-bottom 384-well plates at 3000/well in 25 μL Dulbecco's Modified Eagle Medium (DMEM) supplemented with 10% w/w Fetal bovine serum (FBS), 0.2 units/mL recombinant human insulin (Gibco Cat #12585014), and 1% w/w Pen-Strep. Pen-Strep is a commercially available mixture of penicillin G and streptomycin, which is used in mammalian cell culture media to prevent bacterial contamination. Dulbecco's Modified Eagle Medium (DMEM) supplemented with 10% w/w fetal bovine serum (FBS), 0.2 units/mL recombinant human insulin, and 1% w/w Pen-Strep is herein referred to as Treatment Medium. Following seeding of cells in the plates, the plates were spun at 300×g for 30 seconds, then equilibrated to room temperature for 30 minutes, and then deposited in a humidified tissue culture incubator maintained at 37° C. with 5% CO2.
At 24 hours after seeding of the cells, dilutions of test compound were prepared in DMSO and dissolved in Treatment Medium, to achieve a final DMSO concentration of 0.5% w/w, thereby providing the Test Compound Solution. A 25 μL aliquot of the Test Compound Solution was added to cells in the well plates. An equal volume of a solution containing DMSO and Treatment Medium was used as a negative control. Following treatment of cells with Test Compound Solution or said equal volume of a solution containing DMSO and Treatment Medium, the plates were spun at 300×g for 30 seconds, and then left in an incubator for 72 hours.
At the end of the treatment duration, cell viability was quantified with CellTiter-Glo 2.0 reagent (Promega Cat #G9243). For this purpose, plates were equilibrated to room temperature for 30 minutes, and then 25 μL of CellTiter-Glo 2.0 reagent was added to cells in the plate wells. Plates were then agitated on a shaker for two minutes at 500 rpm and subsequently incubated at room temperature for 10 minutes. Following incubation, the plates were spun at 3000×g for 30 seconds, then sealed with an optical adhesive cover, and luminescence readings were measured with an EnVision Plate Reader (Perkin Elmer).
Data was normalized using zero luminescence for baseline. A four-parameter non-linear regression curve fit was applied to dose-response data in GraphPad Prism data analysis software to determine the half-maximal growth inhibitory concentration (GI50) for each test compound.
With `Cn1cc(-c2cc(C(C)(C)O)ccc2Oc2ccc(F)c(CCCN3CC4(C3)CN(c3ncc(C(=O)N[C@H]5C(C)(C)[C@H](Oc6ccc(C#N)c(Cl)c6)C5(C)C)cn3)C4)c2F)c2cc[nH]c2c1=O` [Compound I-247], the GI50 (in general, the concentration at which growth is held to half of that of the control) was less than 500 nM.
Molecule `CCS(=O)(=O)c1ccc(Oc2cccc(CCCC3CCN(c4ncc(C(=O)N[C@H]5C(C)(C)[C@H](Oc6ccc(C#N)c(Cl)c6)C5(C)C)cn4)CC3)c2)c(-c2cn(C)c(=O)c3[nH]ccc23)c1` [Compound I-248] yielded a GI50 of less than 500 nM.
Still for that read-out and setting: the result for `Cn1cc(-c2cc(C(C)(C)O)ccc2OC(CCCCN2CCN(c3ncc(C(=O)N[C@H]4C(C)(C)[C@H](Oc5ccc(C#N)c(Cl)c5)C4(C)C)cn3)CC2)C2CC2)c2cc[nH]c2c1=O` (some centres unmarked) [Compound I-252] reads 500 to 1500 nM; that for `Cn1cc(-c2cc(C(C)(C)O)ccc2Oc2cccc(CC3CCN(c4ncc(C(=O)N[C@H]5C(C)(C)[C@H](Oc6ccc(C#N)c(Cl)c6)C5(C)C)cn4)CC3)c2)c2cc[nH]c2c1=O` [Compound I-374], 500 to 1500 nM; that for `Cn1cc(-c2cc(C(C)(C)O)ccc2Oc2cccc(N3CC(CC4CCN(c5ncc(C(=O)N[C@H]6C(C)(C)[C@H](Oc7ccc(C#N)c(Cl)c7)C6(C)C)cn5)CC4)C3)c2)c2cc[nH]c2c1=O` [Compound I-376], less than 500 nM.
On the same count and under the same terms, the value for `Cn1cc(-c2cc(C(C)(C)O)ccc2Oc2ccccc2)c2cc(C(=O)NC3CC(CC4CCN(c5ccc(C(=O)N[C@H]6C(C)(C)[C@H](Oc7ccc(C#N)c(Cl)c7)C6(C)C)nc5)CC4)C3)[nH]c2c1=O` (some centres unmarked) [Compound I-378] was more than 3000 nM.
On the same count and under the same terms, the result for `Cn1cc(-c2cc(C(C)(C)O)ccc2Oc2ccc(N3CC(C4CCN(c5cnc(C(=O)N[C@H]6C(C)(C)[C@H](Oc7ccc(C#N)c(Cl)c7)C6(C)C)cn5)CC4)C3)cc2)c2cc[nH]c2c1=O` [Compound I-381] reads 500 to 1500 nM; that for `Cn1cc(-c2cc(C(C)(C)O)ccc2Oc2ccc(N3CC(C4CCN(c5ccc(C(=O)N[C@H]6C(C)(C)[C@H](Oc7ccc(C#N)c(Cl)c7)C6(C)C)cn5)CC4)C3)cc2)c2cc[nH]c2c1=O` [Compound I-382], less than 500 nM; that for `COc1cc(O[C@H]2C(C)(C)[C@H](NC(=O)c3cnc(N4CCC(CC5CN(c6ccc(Oc7ccc(C(C)(C)O)cc7-c7cn(C)c(=O)c8[nH]ccc78)cc6)C5)CC4)cn3)C2(C)C)ccc1C#N` [Compound I-384], less than 500 nM.
For `COc1cc(O[C@H]2C(C)(C)[C@H](NC(=O)c3cnc(N4CCC(C5CN(c6ccc(Oc7ccc(C(C)(C)O)cc7-c7cn(C)c(=O)c8[nH]ccc78)cc6)C5)CC4)nc3)C2(C)C)ccc1C#N` [Compound I-385], the GI50 is less than 500 nM.
Still for that read-out and setting: the result for `Cn1cc(-c2ccccc2Oc2ccc(N3CC(C4CCN(c5ccc(C(=O)N[C@H]6C(C)(C)[C@H](Oc7ccc(C#N)c(Cl)c7)C6(C)C)nc5)CC4)C3)cc2)c2cc[nH]c2c1=O` [Compound I-386] reads less than 500 nM; that for `Cn1cc(-c2cc(C(C)(C)O)ccc2Oc2ccc(N3CC(C4CCN(c5ccc(C(=O)N[C@H]6C(C)(C)[C@H](Oc7ccc(C#N)c(Cl)c7)C6(C)C)nc5)CC4)C3)cc2)c2cc[nH]c2c1=O` [Compound I-388], less than 500 nM; that for `Cn1cc(-c2cc(C(C)(C)O)ccc2Oc2ccc(N3CC(C4CCN(c5ncc(C(=O)N[C@H]6C(C)(C)[C@H](Oc7ccc(C#N)c(C(F)(F)F)c7)C6(C)C)cn5)CC4)C3)cc2)c2cc[nH]c2c1=O` [Compound I-389], less than 500 nM.
Same read-out and setting: the value for `Cn1cc(-c2cc(C(C)(C)O)ccc2Oc2ccc(N3CC(C4CCN(c5ncc(C(=O)N[C@H]6C(C)(C)[C@H](Oc7ccc(C#N)c(F)c7)C6(C)C)cn5)CC4)C3)cc2)c2cc[nH]c2c1=O` [Compound I-390] was less than 500 nM; that for `COc1cc(Oc2ccc(C(C)(C)O)cc2-c2cn(C)c(=O)c3[nH]ccc23)ccc1N1CC(CC2CCN(c3cnc(C(=O)N[C@H]4C(C)(C)[C@H](Oc5ccc(C#N)c(Cl)c5)C4(C)C)cn3)CC2)C1` [Compound I-394] was less than 500 nM.

Still in this assay, the particulars now being: Homo sapiens, 72 hours.
For the molecule `Cn1cc(-c2ccccc2Oc2ccc(CC3CCN(c4cnc(C(=O)N[C@H]5C(C)(C)[C@H](Oc6ccc(C#N)c(Cl)c6)C5(C)C)cn4)CC3)cc2)c2cc[nH]c2c1=O` [Compound I-371], the concentration for 50% growth inhibition (GI50) is less than 500 nM.
The same measure, in the same setting: the value for `Cn1cc(-c2cc(C(C)(C)O)ccc2Oc2ccc(N3CC(C[C@@H]4[C@H]5CN(c6ncc(C(=O)N[C@H]7C(C)(C)[C@H](Oc8ccc(C#N)c(Cl)c8)C7(C)C)cn6)C[C@@H]45)C3)cc2)c2cc[nH]c2c1=O` [Compound I-372] was less than 500 nM.
Same read-out and setting: the result for `Cn1cc(-c2cc(C(C)(C)O)ccc2Oc2ccc(CC3CC4(CCN(c5cnc(C(=O)N[C@H]6C(C)(C)[C@H](Oc7ccc(C#N)c(Cl)c7)C6(C)C)cn5)CC4)C3)cc2)c2cc[nH]c2c1=O` [Compound I-375] reads more than 3000 nM; that for `Cn1cc(-c2cc(C(C)(C)O)ccc2Oc2ccccc2)c2cc(C(=O)NC3CC(CC4CCN(c5ccc(C(=O)NC6C(C)(C)C(Oc7ccc(C#N)c(Cl)c7)C6(C)C)nc5)CC4)C3)[nH]c2c1=O` (centres unmarked) [Compound I-377, N-[3-[[1-[6-[[3-(3-chloro-4-cyano-phenoxy)-2,2,4,4-tetramethyl-cyclobutyl]carbamoyl]-3-pyridyl]-4-piperidyl]methyl]cyclobutyl]-4-[5-(1-hydroxy-1-methyl-ethyl)-2-phenoxy-phenyl]-6-methyl-7-oxo-1H-pyrrolo[2,3-c]pyridine-2-carboxamide], more than 3000 nM.
As to `Cn1cc(-c2cc(C(C)(C)O)ccc2Oc2ccc(CC3CC4(CCN(c5ccc(C(=O)N[C@H]6C(C)(C)[C@H](Oc7ccc(C#N)c(Cl)c7)C6(C)C)nc5)CC4)C3)cc2)c2cc[nH]c2c1=O` [Compound I-379], the concentration for 50% growth inhibition (GI50) lay in the range of 1500 to 3000 nM.
The same measure, in the same setting: the value for `Cn1cc(-c2cc(C(C)(C)O)ccc2Oc2ccc(CC3CC4(CCN(c5ccc(C(=O)N[C@H]6C(C)(C)[C@H](Oc7ccc(C#N)c(Cl)c7)C6(C)C)cn5)CC4)C3)cc2)c2cc[nH]c2c1=O` [Compound I-380] was 500 to 1500 nM; that for `Cn1cc(-c2cc(C(C)(C)O)ccc2Oc2ccc(N3CC(CC4CCN(c5cnc(C(=O)N[C@H]6C(C)(C)[C@H](Oc7ccc(C#N)c(F)c7)C6(C)C)cn5)CC4)C3)cc2)c2cc[nH]c2c1=O` [Compound I-383] was less than 500 nM.
On the same count and under the same terms, the result for `Cn1cc(-c2cc(C(C)(C)O)ccc2Oc2ccccc2N2CC(CC3CCN(c4ncc(C(=O)NC5C(C)(C)C(Oc6ccc(C#N)c(Cl)c6)C5(C)C)cn4)CC3)C2)c2cc[nH]c2c1=O` (centres unmarked) [Compound I-387, N-[3-(3-chloro-4-cyano-phenoxy)-2,2,4,4-tetramethyl-cyclobutyl]-2-[4-[[1-[2-[4-(1-hydroxy-1-methyl-ethyl)-2-(6-methyl-7-oxo-1H-pyrrolo[2,3-c]pyridin-4-yl)phenoxy]phenyl]azetidin-3-yl]methyl]-1-piperidyl]pyrimidine-5-carboxamide] reads more than 3000 nM; that for `Cc1cc(Oc2ccc(C(C)(C)O)cc2-c2cn(C)c(=O)c3[nH]ccc23)cc(C)c1N1CC(CC2CCN(c3cnc(C(=O)N[C@H]4C(C)(C)[C@H](Oc5ccc(C#N)c(Cl)c5)C4(C)C)cn3)CC2)C1` [Compound I-391, N-[3-(3-chloro-4-cyano-phenoxy)-2,2,4,4-tetramethyl-cyclobutyl]-5-[4-[[1-[4-[4-(1-hydroxy-1-methyl-ethyl)-2-(6-methyl-7-oxo-1H-pyrrolo[2,3-c]pyridin-4-yl)phenoxy]-2,6-dimethyl-phenyl]azetidin-3-yl]methyl]-1-piperidyl]pyrazine-2-carboxamide], less than 500 nM.
The same measure, in the same setting: the result for `COc1cc(N2CC(CC3CCN(c4cnc(C(=O)NC5C(C)(C)C(Oc6ccc(C#N)c(Cl)c6)C5(C)C)cn4)CC3)C2)ccc1Oc1ccc(C(C)(C)O)cc1-c1cn(C)c(=O)c2[nH]ccc12` (centres unmarked) [Compound I-392, N-[3-(3-chloro-4-cyano-phenoxy)-2,2,4,4-tetramethyl-cyclobutyl]-5-[4-[[1-[4-[4-(1-hydroxy-1-methyl-ethyl)-2-(6-methyl-7-oxo-1H-pyrrolo[2,3-c]pyridin-4-yl)phenoxy]-3-methoxy-phenyl]azetidin-3-yl]methyl]-1-piperidyl]pyrazine-2-carboxamide] reads less than 500 nM.
As for `Cn1cc(-c2cc(C(C)(C)O)ccc2Oc2ccc(N3CC(CC4CCN(c5cnc(C(=O)N[C@H]6C(C)(C)[C@H](Oc7ccc(C#N)c(Cl)c7)C6(C)C)cn5)CC4)C3)cc2Cl)c2cc[nH]c2c1=O` [Compound I-393], the GI50 is less than 500 nM.

The test system of another assay is VCaP cells. In words: Cellular growth inhibition assay for VCaP cells, CellTiter-Glo. The format is cell-based, human. The conditions noted are these: 72 hours. In a few lines: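 GI50 values come from four-parameter curve fits of luminescence data normalized to a zero baseline. Compound, in medium with 0.5% DMSO, was added one day after plating and left for 72 h before CellTiter-Glo 2.0 addition.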
In general terms: Cellular ATP, detected with luciferase, serves as a proxy for viable cell number.
`Cn1cc(-c2cc(C(C)(C)O)ccc2Oc2ccc(F)c(CCCN3CC4(C3)CN(c3ncc(C(=O)N[C@H]5C(C)(C)[C@H](Oc6ccc(C#N)c(Cl)c6)C5(C)C)cn3)C4)c2F)c2cc[nH]c2c1=O` [Compound I-247] displayed a GI50 of less than 500 nM.
On the same count and under the same terms, the value for `CCS(=O)(=O)c1ccc(Oc2cccc(CCCC3CCN(c4ncc(C(=O)N[C@H]5C(C)(C)[C@H](Oc6ccc(C#N)c(Cl)c6)C5(C)C)cn4)CC3)c2)c(-c2cn(C)c(=O)c3[nH]ccc23)c1` [Compound I-248] was 500 to 1500 nM; that for `Cn1cc(-c2cc(C(C)(C)O)ccc2OC(CCCCN2CCN(c3ncc(C(=O)N[C@H]4C(C)(C)[C@H](Oc5ccc(C#N)c(Cl)c5)C4(C)C)cn3)CC2)C2CC2)c2cc[nH]c2c1=O` (some centres unmarked) [Compound I-252] was less than 500 nM.
